Reference: patent US8258116B2, “Combination therapy for the treatment of HCV infection” (Vertex Pharmaceuticals Incorporated, priority 2007, dated 2012)
Where two headings read alike, the source gives them in different places.

Legend:
Assay type in all cases: cell-based
[1] = test system: HCV NS3 protease variant replicon T54A; experiment: microbe, parasite or virus in culture
Method: (§1) Huh-7 cells were propagated in Dulbecco's modified Eagle's medium (DMEM, JRH Biosciences, Lenexa, Kans.) supplemented with 10% heat-inactivated FBS (fetal bovine serum), 2 mM L-glutamine, and nonessential amino acids (JRH). The cells were transfected with an in vitro transcribed HCV replicon RNA identical to replicon 1377neo/NS3-3′/wt as described by Lohmann et al. (1999). Stable cell clones were selected and maintained in the presence of 250 μg/mL G418 (Invitrogen, Carlsbad, Calif.). […] The HCV NS3 protease variant replicons were constructed in the background of the mADE wild-type replicon as described previously [Chao Lin et al., “In Vitro Resistance Studies of Hepatitis C Virus Serine Protease Inhibitors, VX-950 and BILN 2061: Structural Analysis Indicates Different Resistance Mechanisms,” Journal of Biological Chemistry, 279(17); pp. 17508-17514 (2004)]. The replicon cells were propagated in DMEM supplemented with 10% FBS, 2 mM L-glutamine, nonessential amino acids, and 250 μg/mL G418. The cells were split twice per week in fresh media upon reaching confluence. There are approximately 200-300 copies of HCV RNA per 24-2 replicon cell.
(§2) HCV replicon RNA from cells was measured using the Quantigene Discover XL kit (Panomics Inc., Fremont Calif.) as per the manufacturer's instructions. Briefly, compound-treated replicon cells were lysed and immobilized on to capture plates using HCV specific oligonucleotides (designed based on the 5′ UTR region of HCV 1b genome sequence AJ238799 in the GenBank database) over night and the relative amounts of captured RNA was measured using oligonucleotide probe sets as per the manufacturer's instructions.
(§3) On the day prior to the assay, 10,000 replicon cells were plated per well of a 96-well plate and allowed to attach and grow overnight in DMEM (Invitrogen, Carlsbad, Calif.) supplemented with 10% heat-inactivated FBS (JRH Biosciences, Lenexa, Kans.), 2 mM L-glutamine (Invitrogen), nonessential amino acids (Invitrogen) and 250 μg/ml G418 (Invitrogen). Next day, the medium was removed and antiviral agents that were serially diluted in DMEM containing 2% FBS and 0.5% DMSO (Sigma Chemical Co., St. Louis, Mo.) without G418, was added. The replicon cells were incubated with the antiviral agents for 48 h. HCV replicon RNA from cells was measured using the Quantigene Discover XL kit (Panomics Inc., Fremont Calif.) as per the manufacturer's instructions. Briefly, compound-treated replicon cells were lysed and immobilized onto capture plates using HCV specific oligonucleotides overnight and the relative amounts of captured RNA was measured using oligonucleotide probe sets as per the manufacturer's instructions. Unless indicated otherwise, each data point represents the average of three replicates. The IC50 is the concentration of the compound at which the HCV replicon RNA level in cells is reduced by 50% as compared to the untreated replicon cell controls. To monitor the effect of compounds on cell proliferation or cell viability, replicon cells were treated with serially diluted compounds for 48 h, after which cell viability was determined using a CellTiter Glo assay (Promega, Madison, Wis.). Each CC50 is derived from at least two replicates and is the concentration of the compound at which the number of viable cells is reduced by 50% as compared to untreated cell controls. The IC50 and CC50 was determined using 4-parameter curve fitting in the SoftMax Pro program (Molecular Devices, Sunnyvale, Calif.).
(§4) The sensitivity of NS3 protease variants to ribavirin and interferon was assessed in a 2-Day HCV Replicon IC50 Assay.

[2] = test system: HCV NS3 protease variant replicon R155K; experiment: microbe, parasite or virus in culture
Method: as §1, §2, §3, §4

[3] = test system: HCV NS3 protease variant replicon V36M; experiment: microbe, parasite or virus in culture
Method: as §1, §2, §3, §4

[4] = test system: HCV NS3 protease variant replicon V36A; experiment: microbe, parasite or virus in culture
Method: as §1, §2, §3, §4

[5] = test system: HCV NS3 protease variant replicon V36M+R155K; experiment: microbe, parasite or virus in culture; conditions: V36M-R155K; ratio of mutant IC50 to Wild type IC50 for the same inhibitor
Method: as §1, §2, §3, §4

[6] = test system: HCV replicon cells (wild-type clone 24-2, Huh-7); experiment: 2-day Replicon assay with bDNA quantitation, checkerboard combination (Bliss independence / MacSynergy); conditions: VX-950 in the checkerboard experiment with the named polymerase inhibitor, read-out: VX-950 IC50
Method: Huh-7 cells were propagated in Dulbecco's modified Eagle's medium (DMEM, JRH Biosciences, Lenexa, Kans.) supplemented with 10% heat-inactivated FBS (fetal bovine serum), 2 mM L-glutamine, and nonessential amino acids (JRH). The cells were transfected with an in vitro transcribed HCV replicon RNA identical to replicon 1377neo/NS3-3′/wt as described by Lohmann et al. (1999). Stable cell clones were selected and maintained in the presence of 250 μg/mL G418 (Invitrogen, Carlsbad, Calif.). One of the clones, 24-2, was used as the wild-type in the subsequent HCV replicon assays for combination studies. The HCV NS3 protease variant replicons were constructed in the background of the mADE wild-type replicon as described previously [Chao Lin et al., “In Vitro Resistance Studies of Hepatitis C Virus Serine Protease Inhibitors, VX-950 and BILN 2061: Structural Analysis Indicates Different Resistance Mechanisms,” Journal of Biological Chemistry, 279(17); pp. 17508-17514 (2004)]. The replicon cells were propagated in DMEM supplemented with 10% FBS, 2 mM L-glutamine, nonessential amino acids, and 250 μg/mL G418. The cells were split twice per week in fresh media upon reaching confluence. There are approximately 200-300 copies of HCV RNA per 24-2 replicon cell.
as §2, §3
The effects of drug-drug combinations were evaluated using the Bliss independence model [W. R. Greco et al., “The search for synergy: a critical review from a response surface perspective,” Pharmacol. Rev., 47, pp. 331-385 (1995)]. The experimental data were analyzed by using MacSynergy, a three-dimensional analytical method developed by Prichard and Shipman [M. N. Prichard and C. […]

[7] = Hepatitis C virus, read-out: Avg. IC50 ± STDEV

For CCC[C@H](NC(=O)[C@@H]1[C@H]2CCC[C@H]2CN1C(=O)[C@@H](NC(=O)[C@@H](NC(=O)c1cnccn1)C1CCCCC1)C(C)(C)C)C(=O)C(=O)NC1CC1 [VX-950], the IC50 [1, 7] was 3.04 ± 0.819 µM, the “Fold Change” value ([1]; T54A, ratio of mutant IC50 to Wild type IC50 for the same inhibitor) was 6.6 ± 1.8 and the IC50 [2, 7] was 3.59 ± 0.283 µM. The “Fold Change” value ([2]; R155K, ratio of mutant IC50 to Wild type IC50 for the same inhibitor) was 7.8 ± 0.6, the IC50 [3, 7] was 3.38 ± 0.775 µM and the “Fold Change” value ([3]; V36M, ratio of mutant IC50 to Wild type IC50 for the same inhibitor) was 7.3 ± 1.7. The IC50 [4, 7] was 3.57 ± 1.05 µM, the “Fold Change” value ([4]; V36A, ratio of mutant IC50 to Wild type IC50 for the same inhibitor) was 7.7 ± 2.3 and the “Fold Change” value [5] was “≧65.2”. It also gave an IC50 ([6]; Hepatitis C virus, Huh-7, 48 h) of 0.31 µM, an IC50 ([6]; 48 h, with polymerase inhibitor of Formula I) of 0.42 µM and an IC50 ([6]; 48 h, with polymerase inhibitor of Formula II) of 0.34 µM.
